The text below walks through data of PMC8620908, “Design, Synthesis, In Vitro Anticancer Evaluation and Molecular Modelling Studies of 3,4,5-Trimethoxyphenyl-Based Derivatives as Dual EGFR/HDAC Hybrid Inhibitors” (Pharmaceuticals, 2021).

Like-named read-outs stand apart in the source and are kept apart here.

For data set [1], the system named is HepG2. The experiment in a line: Antiproliferative MTT assay, HepG2. The following applies: Homo sapiens, HepG2, read-out: Antiproliferative Activity IC50 ± SEM, HepG2. Background: Tetrazolium assays rely on reduction of a dye to a coloured formazan, in cell work by metabolically active cells.
Data set [2] deals with MCF-7. The experiment in a line: Antiproliferative MTT assay, MCF-7. The following applies: Homo sapiens, MCF7, read-out: Antiproliferative Activity IC50 ± SEM, MCF-7.
Data set [3] has as its system HCT116. Nature of the data set: Antiproliferative MTT assay, HCT116. As to conditions: Homo sapiens, HCT-116, read-out: Antiproliferative Activity IC50 ± SEM, HCT116.
Data set [4] relates to A549. Nature of the data set: Antiproliferative MTT assay, A549. The following applies: Homo sapiens, A549, read-out: Antiproliferative Activity IC50 ± SEM, A549.
Data set [5] addresses HDAC1 (Homo sapiens, UniProt Q13547). Nature of the data set: In vitro HDAC inhibition assay, HDAC1.
For data set [6], the target named is T1, HDAC6 (Homo sapiens, UniProt Q9UBN7).
T1 sequence (Q9UBN7 1-1215): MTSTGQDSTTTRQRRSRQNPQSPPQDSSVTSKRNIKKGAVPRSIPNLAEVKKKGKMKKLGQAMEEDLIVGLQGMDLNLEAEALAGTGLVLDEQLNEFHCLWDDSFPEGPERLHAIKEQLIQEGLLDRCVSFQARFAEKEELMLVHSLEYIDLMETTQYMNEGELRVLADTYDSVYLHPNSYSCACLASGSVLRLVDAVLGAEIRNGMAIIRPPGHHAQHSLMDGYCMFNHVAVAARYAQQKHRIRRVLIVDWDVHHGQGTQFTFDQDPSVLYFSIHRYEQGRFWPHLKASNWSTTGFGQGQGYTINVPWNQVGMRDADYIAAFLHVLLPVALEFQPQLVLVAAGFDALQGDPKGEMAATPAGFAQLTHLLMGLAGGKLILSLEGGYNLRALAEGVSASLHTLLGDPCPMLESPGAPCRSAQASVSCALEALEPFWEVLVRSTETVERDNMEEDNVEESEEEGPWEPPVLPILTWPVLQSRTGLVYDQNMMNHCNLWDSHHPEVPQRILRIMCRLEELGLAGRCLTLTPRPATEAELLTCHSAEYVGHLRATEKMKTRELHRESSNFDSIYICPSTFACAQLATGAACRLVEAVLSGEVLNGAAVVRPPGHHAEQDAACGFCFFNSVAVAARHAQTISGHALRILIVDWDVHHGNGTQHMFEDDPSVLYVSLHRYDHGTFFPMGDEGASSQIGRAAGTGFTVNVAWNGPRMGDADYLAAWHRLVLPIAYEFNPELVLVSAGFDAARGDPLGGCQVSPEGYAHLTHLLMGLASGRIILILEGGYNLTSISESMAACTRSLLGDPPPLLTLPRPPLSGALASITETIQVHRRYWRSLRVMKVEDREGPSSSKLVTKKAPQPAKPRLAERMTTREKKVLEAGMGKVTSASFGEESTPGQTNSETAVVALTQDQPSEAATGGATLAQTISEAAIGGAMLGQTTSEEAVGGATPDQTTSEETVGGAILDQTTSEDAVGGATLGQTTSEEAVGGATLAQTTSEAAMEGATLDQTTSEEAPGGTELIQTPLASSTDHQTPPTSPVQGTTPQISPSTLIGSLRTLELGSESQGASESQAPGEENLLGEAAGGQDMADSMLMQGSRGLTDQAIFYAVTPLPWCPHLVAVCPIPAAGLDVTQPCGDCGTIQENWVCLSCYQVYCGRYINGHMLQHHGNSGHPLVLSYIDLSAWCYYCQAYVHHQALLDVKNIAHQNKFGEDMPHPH
The experiment in a line: In vitro HDAC inhibition assay, HDAC6.

The target of data set [7] is EGFR (Homo sapiens, UniProt P00533). Nature of the data set: EGFR-TK inhibition, cell-free assay. It counts as biochemical.
The target in data set [8] is HDAC2 (Homo sapiens, UniProt Q92769). The experiment in a line: In vitro HDAC inhibition assay, HDAC2.
The target of data set [9] is T2, HDAC8 (Homo sapiens, UniProt Q9BY41).
T2 sequence (Q9BY41 1-377): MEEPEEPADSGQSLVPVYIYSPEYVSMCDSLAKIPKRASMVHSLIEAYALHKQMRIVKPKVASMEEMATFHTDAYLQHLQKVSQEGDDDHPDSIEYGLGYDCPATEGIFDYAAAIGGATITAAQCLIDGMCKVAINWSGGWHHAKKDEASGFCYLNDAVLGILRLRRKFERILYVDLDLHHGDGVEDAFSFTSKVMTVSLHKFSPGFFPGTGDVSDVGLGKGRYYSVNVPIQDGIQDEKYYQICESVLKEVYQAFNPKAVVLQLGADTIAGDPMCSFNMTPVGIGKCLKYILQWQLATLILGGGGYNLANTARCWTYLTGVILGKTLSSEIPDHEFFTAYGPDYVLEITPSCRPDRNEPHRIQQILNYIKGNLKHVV
Nature of the data set: In vitro HDAC inhibition assay, HDAC8.

Data set [10] addresses HDAC4 (Homo sapiens, UniProt P56524). Nature of the data set: In vitro HDAC inhibition assay, HDAC4.
For data set [11], the system named is Caspase-3. The experiment in a line: Caspase-3 level assay in HepG2 cancer cell line. In kind it is cell-based, human.
Data set [12] relates to Caspase-8. The experiment in a line: Caspase-8 level assay in HepG2 cancer cell line. It counts as cell-based, human. The following applies: HepG2 cancer cell line.
Data set [13] deals with Bax. The experiment in a line: Bax level assay in HepG2 cancer cell line. In kind it is cell-based. As to conditions: HepG2 cancer cell line.

Sequence of EGFR (P00533 25-1210): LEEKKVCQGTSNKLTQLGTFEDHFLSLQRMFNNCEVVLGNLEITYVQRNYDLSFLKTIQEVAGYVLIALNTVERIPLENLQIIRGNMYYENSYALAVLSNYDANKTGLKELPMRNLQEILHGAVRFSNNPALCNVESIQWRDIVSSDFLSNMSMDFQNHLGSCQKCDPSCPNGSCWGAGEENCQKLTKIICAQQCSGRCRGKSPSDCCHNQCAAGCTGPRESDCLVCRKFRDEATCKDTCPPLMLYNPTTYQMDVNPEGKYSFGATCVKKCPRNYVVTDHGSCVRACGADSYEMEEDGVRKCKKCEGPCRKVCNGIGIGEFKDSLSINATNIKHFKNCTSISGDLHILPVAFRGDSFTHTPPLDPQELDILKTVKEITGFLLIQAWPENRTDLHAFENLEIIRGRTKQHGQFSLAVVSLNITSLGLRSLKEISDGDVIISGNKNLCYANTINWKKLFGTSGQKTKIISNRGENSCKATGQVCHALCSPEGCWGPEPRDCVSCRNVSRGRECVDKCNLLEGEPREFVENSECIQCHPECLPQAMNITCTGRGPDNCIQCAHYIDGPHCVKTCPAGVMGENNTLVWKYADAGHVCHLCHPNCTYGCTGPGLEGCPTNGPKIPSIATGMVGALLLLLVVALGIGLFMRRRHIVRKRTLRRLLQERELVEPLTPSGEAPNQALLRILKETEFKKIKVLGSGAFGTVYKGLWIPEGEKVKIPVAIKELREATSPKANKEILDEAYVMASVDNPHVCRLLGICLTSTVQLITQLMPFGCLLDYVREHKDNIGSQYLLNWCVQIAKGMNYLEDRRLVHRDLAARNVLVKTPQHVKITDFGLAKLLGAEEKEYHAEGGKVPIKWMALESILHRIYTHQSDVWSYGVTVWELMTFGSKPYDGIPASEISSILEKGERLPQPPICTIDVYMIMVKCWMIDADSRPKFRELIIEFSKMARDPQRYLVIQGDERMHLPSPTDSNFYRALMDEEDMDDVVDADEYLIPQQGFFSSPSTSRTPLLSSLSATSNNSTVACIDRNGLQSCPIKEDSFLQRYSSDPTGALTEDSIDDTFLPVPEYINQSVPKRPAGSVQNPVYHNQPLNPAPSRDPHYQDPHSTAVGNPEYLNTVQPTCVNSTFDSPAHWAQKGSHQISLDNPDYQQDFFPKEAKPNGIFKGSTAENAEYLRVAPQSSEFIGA
Sequence of HDAC4 (P56524 whole entry): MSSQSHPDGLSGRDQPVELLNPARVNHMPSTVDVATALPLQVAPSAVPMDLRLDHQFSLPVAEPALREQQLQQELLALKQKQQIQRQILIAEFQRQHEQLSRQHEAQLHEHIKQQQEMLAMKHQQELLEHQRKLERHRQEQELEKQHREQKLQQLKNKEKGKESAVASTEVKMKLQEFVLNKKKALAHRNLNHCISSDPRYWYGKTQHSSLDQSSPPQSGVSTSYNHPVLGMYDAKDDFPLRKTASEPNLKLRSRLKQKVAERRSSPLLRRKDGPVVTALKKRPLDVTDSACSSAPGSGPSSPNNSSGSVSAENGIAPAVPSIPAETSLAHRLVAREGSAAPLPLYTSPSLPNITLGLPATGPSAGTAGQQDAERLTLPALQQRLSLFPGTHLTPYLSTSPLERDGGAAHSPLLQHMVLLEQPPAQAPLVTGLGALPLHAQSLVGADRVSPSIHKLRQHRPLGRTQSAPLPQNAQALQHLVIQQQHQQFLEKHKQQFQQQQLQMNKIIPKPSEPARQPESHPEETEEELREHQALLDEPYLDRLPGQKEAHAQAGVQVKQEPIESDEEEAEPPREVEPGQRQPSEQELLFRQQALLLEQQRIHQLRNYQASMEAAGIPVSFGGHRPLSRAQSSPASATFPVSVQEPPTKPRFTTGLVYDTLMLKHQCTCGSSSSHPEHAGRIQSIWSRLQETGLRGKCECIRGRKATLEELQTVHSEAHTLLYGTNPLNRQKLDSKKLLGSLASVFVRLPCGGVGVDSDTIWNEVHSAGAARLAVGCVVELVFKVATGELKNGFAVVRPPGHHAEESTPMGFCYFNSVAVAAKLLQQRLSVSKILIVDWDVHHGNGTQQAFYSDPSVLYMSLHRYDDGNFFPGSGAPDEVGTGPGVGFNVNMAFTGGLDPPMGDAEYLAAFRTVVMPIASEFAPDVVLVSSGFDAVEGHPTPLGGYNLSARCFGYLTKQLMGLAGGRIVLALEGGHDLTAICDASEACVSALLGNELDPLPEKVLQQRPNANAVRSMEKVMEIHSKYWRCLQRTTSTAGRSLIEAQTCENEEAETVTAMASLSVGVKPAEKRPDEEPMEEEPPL
Sequence of HDAC1 (Q13547 whole entry): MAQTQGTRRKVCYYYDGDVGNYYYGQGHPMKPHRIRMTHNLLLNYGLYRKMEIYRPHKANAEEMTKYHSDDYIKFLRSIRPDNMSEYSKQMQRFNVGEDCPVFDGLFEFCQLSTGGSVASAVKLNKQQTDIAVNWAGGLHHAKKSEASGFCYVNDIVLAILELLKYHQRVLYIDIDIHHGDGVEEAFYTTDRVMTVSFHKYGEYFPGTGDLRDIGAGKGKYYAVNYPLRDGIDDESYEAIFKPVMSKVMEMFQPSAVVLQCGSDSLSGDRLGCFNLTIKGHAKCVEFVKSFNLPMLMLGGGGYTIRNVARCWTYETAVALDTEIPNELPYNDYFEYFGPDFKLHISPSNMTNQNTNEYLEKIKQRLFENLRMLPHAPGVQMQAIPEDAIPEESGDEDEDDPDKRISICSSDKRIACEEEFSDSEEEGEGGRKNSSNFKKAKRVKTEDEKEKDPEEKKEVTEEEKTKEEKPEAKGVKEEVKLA
Sequence of HDAC2 (Q92769 whole entry): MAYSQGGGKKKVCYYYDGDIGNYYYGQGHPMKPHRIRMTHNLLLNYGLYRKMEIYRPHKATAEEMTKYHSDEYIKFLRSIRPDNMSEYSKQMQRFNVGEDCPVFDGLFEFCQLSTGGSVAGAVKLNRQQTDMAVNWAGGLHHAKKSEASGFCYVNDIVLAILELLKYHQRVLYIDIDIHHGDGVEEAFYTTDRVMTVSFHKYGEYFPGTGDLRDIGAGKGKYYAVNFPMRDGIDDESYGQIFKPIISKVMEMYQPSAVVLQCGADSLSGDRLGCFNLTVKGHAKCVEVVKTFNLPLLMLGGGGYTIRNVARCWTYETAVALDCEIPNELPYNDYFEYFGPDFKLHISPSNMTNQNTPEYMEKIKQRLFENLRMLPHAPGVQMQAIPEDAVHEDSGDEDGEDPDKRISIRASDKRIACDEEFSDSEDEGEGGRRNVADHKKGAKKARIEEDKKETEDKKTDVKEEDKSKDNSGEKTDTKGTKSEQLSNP

On to `COc1cc(-c2cc(-c3ccc(OCCCCCC(=O)O)cc3)[nH]c(=O)c2C#N)cc(OC)c1OC` [3b, 6-(4-(5-Cyano-6-Oxo-4-(3,4,5-Trimethoxyphenyl)-1,6-Dihydropyridin-2-yl)Phenoxy) Hexanoic Acid], for which the IC50 (as a rule, the concentration that gives 50% inhibition) in [1] was 16.2 ± 0.87 µM; in [2], 12.2 ± 0.65 µM; in data set [3], 15.7 ± 0.85 µM; in [4], 15.3 ± 0.82 µM.

As for `COc1cc(-c2cc(-c3ccc(OCCCCCC(=O)NO)cc3)[nH]c(=O)c2C#N)cc(OC)c1OC` [5b, 6-(4-(5-Cyano-6-Oxo-4-(3,4,5-Trimethoxyphenyl)-1,6-Dihydropyridin-2-yl)Phenoxy)-N-Hydroxyhexanamide], the melting point – broadly, the temperature of the solid-liquid transition – lay in the range of 198 to 204 °C. Moreover, in [1], the IC50 turned out to be 28.3 ± 0.99 µM. Moreover, the IC50 in data set [2] was found to be 19.6 ± 1.05 µM. Besides, the IC50 in data set [3] was 16.9 ± 3.71 µM. Further, the half-inhibitory concentration (IC50) in data set [4] was 18.8 ± 1.01 µM.

For the molecule `COc1cc(-c2cc(-c3ccc(OCCCCC(=O)O)cc3)[nH]c(=O)c2C#N)cc(OC)c1OC` [3a, 5-(4-(5-Cyano-6-Oxo-4-(3,4,5-Trimethoxyphenyl)-1,6-Dihydropyridin-2-yl)Phenoxy)Pentanoic Acid], the melting point was 224 to 228 °C. In addition, in [1], the IC50 turned out to be 65.8 ± 3.55 µM. Also, the half-inhibitory concentration (IC50) in data set [2] was found to be 46.4 ± 2.54 µM. For the same molecule, in data set [3], the IC50 came to 23.5 ± 1.27 µM. For the same molecule, the IC50 in [4] turned out to be 31 ± 1.67 µM.

`COc1cc(/C=C/C(=O)c2ccc(OCCCCCCC(=O)O)cc2)cc(OC)c1OC` [2c, (E)-7-(4-(3-(3,4,5-Trimethoxyphenyl)Acryloyl)Phenoxy)Heptanoic Acid]: the melting point lay within 112 to 115 °C. Also, the IC50 in data set [1] was determined as 17.1 ± 0.92 µM. In addition, the IC50 in data set [2] worked out at 14.8 ± 0.8 µM. Besides, the IC50 in [3] was 16.5 ± 0.89 µM. The IC50 in data set [4] worked out at 22.7 ± 1.22 µM.

The molecule `COc1cc(/C=C/C(=O)c2ccc(OCCCCCCC(=O)NO)cc2)cc(OC)c1OC` [4c, (E)-N-Hydroxy-7-(4-(3-(3,4,5-Trimethoxyphenyl)Acryloyl)Phenoxy)Heptanamide] displayed a melting point of 122 to 128 °C. This molecule also showed an IC50 in data set [5] of 0.07 µM. The molecule further displayed an IC50 in [6] of 0.113 µM. The molecule further yielded an IC50 in data set [7] of 0.091 ± 0.001 µM. Also, the IC50 in data set [8] worked out at 0.277 µM. In addition, the IC50 in data set [9] is 5.02 µM. For the same molecule, in data set [10], inhibition was half-maximal at 8.72 µM (IC50). The IC50 in data set [1] was found to be 2.54 ± 0.14 µM. Moreover, the IC50 in data set [2] is 1.18 ± 0.06 µM. Also, the IC50 in data set [3] amounted to 1.59 ± 0.09 µM. Further, the IC50 in [4] worked out at 1.93 ± 0.14 µM.

For `COc1cc(-c2cc(-c3ccc(OCCCCC(=O)NO)cc3)[nH]c(=O)c2C#N)cc(OC)c1OC` [5a, 5-(4-(5-Cyano-6-Oxo-4-(3,4,5-Trimethoxyphenyl)-1,6-Dihydropyridin-2-yl)Phenoxy)-N-Hydroxypentanamide], the melting point is 232 to 238 °C. In data set [5], the midpoint of inhibition, the IC50, lay at 0.051 µM. For the same molecule, the IC50 in data set [6] came out at 0.222 µM. The IC50 in data set [7] came to 0.214 ± 0.004 µM. Half-maximal inhibition in data set [8] (IC50) required 0.256 µM. The molecule further showed an IC50 in data set [9] of 19.6 µM. Further, the midpoint of inhibition in [10], the IC50, lay at 17.5 µM. Further, the IC50 in data set [1] came to 3.46 ± 0.19 µM. Further, the IC50 in [2] was found to be 4.89 ± 0.26 µM. Moreover, the half-inhibitory concentration (IC50) in data set [3] amounted to 4.67 ± 0.25 µM. For the same molecule, in [4], the IC50 came out at 2.3 ± 0.12 µM.

Turning to `COc1cc(/C=C/C(=O)c2ccc(OCCCCC(=O)O)cc2)cc(OC)c1OC` [2a, (E)-5-(4-(3-(3,4,5-Trimethoxyphenyl)Acryloyl)Phenoxy)Pentanoic Acid], the melting point is 102 to 105 °C. The IC50 in [1] was found to be 88.4 ± 4.76 µM. In addition, in data set [2], the IC50 was 59.9 ± 3.23 µM. Further, the IC50 in [3] was found to be 40.1 ± 2.16 µM. The IC50 in data set [4] was 44.4 ± 2.39 µM.

For `COc1cc(-c2cc(-c3ccc(OCCCCCCC(=O)NO)cc3)[nH]c(=O)c2C#N)cc(OC)c1OC` [5c, 7-(4-(5-Cyano-6-Oxo-4-(3,4,5-Trimethoxyphenyl)-1,6-dihydropyridin-2-yl)phenoxy)-N-Hydroxyheptanamide], the melting point is 170 to 176 °C. In addition, the IC50 in data set [1] was determined as 27.6 ± 1.49 µM. Moreover, in [2], the IC50 came out at 12.1 ± 0.65 µM. For the same molecule, in data set [3], the IC50 worked out at 9.47 ± 0.51 µM. Further, the IC50 in data set [4] was found to be 8.58 ± 0.46 µM.

`COc1cc(-c2cc(-c3ccc(OCCCCCCC(=O)O)cc3)[nH]c(=O)c2C#N)cc(OC)c1OC` [3c, 7-(4-(5-Cyano-6-Oxo-4-(3,4,5-Trimethoxyphenyl)-1,6-Dihydropyridin-2-yl)Phenoxy) Heptanoic Acid] gave a melting point of 168 to 170 °C. Moreover, the IC50 in data set [1] turned out to be 21.1 ± 1.14 µM. For the same molecule, in data set [2], the IC50 was determined as 23.7 ± 1.28 µM. Further, the IC50 in [3] was found to be 13.9 ± 0.75 µM. Besides, the IC50 in data set [4] was 21.3 ± 1.15 µM.

With `CN[C@@H]1C[C@H]2O[C@@](C)([C@@H]1OC)n1c3ccccc3c3c4c(c5c6ccccc6n2c5c31)C(=O)NC4` [Staurosporine, reference compound], the results for the “Caspase-3 Conc” value in [11] and in [11] (listed as staurosporine) were 445.9 ± 15.39 pg/mL and 445.9 pg/mL, respectively. Also, the “Caspase-8 Conc” value was determined as 1.343 ± 0.026 ng/mL in data set [12] and 1.343 ng/mL in [12] (listed as staurosporine). Besides, the “Bax Conc” value in data set [13] came out at 362.2 ± 9.61 pg/mL; in [13] (listed as staurosporine) it was 362.2 pg/mL.

Take `COc1cc(/C=C/C(=O)c2ccc(OCCCCC(=O)NO)cc2)cc(OC)c1OC` [4a, (E)-N-Hydroxy-5-(4-(3-(3,4,5-Trimethoxyphenyl)Acryloyl)Phenoxy) Pentanamide]: the melting point lay in the range of 220 to 224 °C. In [5], this molecule had an IC50 of 0.121 µM. In [6], this molecule showed an IC50 of 0.086 µM. Also, the midpoint of inhibition in [7], the IC50, lay at 0.111 ± 0.002 µM. The IC50 in data set [8] amounted to 0.119 µM. Moreover, the 50% inhibitory concentration (IC50) in data set [9] came to 6.35 µM. This molecule yielded an IC50 in data set [10] of 6.69 µM. The IC50 in [1] was found to be 3.62 ± 0.2 µM. Besides, the IC50 in [2] was 1.97 ± 0.11 µM. The IC50 in [3] was 3.21 ± 0.17 µM. The IC50 in [4] was found to be 2.07 ± 0.11 µM.

Consider `COc1cc(/C=C/C(=O)c2ccc(OCCCCCC(=O)O)cc2)cc(OC)c1OC` [2b, (E)-6-(4-(3-(3,4,5-Trimethoxyphenyl)Acryloyl)Phenoxy)Hexanoic Acid], for which the melting point was in the range of 138 to 140 °C. The IC50 in data set [1] is 30.4 ± 1.64 µM. In addition, the 50% inhibitory concentration (IC50) in [2] stood at 39.4 ± 2.12 µM. For the same molecule, in [3], the IC50 turned out to be 23.7 ± 1.28 µM. In addition, the IC50 in data set [4] was found to be 33.7 ± 1.82 µM.
